Measurements published in article PMC9177823 (Journal of molecular biology, 2022).

Biological target: MelBSt; Salmonella typhimurium melibiose permease (Salmonella enterica, UniProt P30878)
Experiment: CD thermal denaturation at […] nm, purified in DDM
Type: binding
Settings: 50 mM melibiose, 100 mM LiCl, 20 mM NaPi pH 7.5, 10% glycerol, 0.01% DDM

Sequence of MelBSt; Salmonella typhimurium melibiose permease (P30878 whole entry): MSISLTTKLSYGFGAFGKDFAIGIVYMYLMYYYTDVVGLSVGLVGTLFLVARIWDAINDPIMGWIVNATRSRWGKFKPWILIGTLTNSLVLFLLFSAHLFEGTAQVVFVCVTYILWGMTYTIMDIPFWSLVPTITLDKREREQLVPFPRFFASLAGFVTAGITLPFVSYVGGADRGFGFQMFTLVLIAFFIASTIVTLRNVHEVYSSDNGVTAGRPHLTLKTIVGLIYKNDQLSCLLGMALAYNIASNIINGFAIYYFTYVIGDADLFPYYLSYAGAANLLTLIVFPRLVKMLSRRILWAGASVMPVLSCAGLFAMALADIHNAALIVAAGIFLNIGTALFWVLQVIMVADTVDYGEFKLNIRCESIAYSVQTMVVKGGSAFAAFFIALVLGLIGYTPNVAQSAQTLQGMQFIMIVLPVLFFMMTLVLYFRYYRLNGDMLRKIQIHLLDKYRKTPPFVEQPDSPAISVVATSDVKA

## OC[C@H]1O[C@H](OC[C@H]2OC(O)[C@H](O)[C@@H](O)[C@@H]2O)[C@H](O)[C@@H](O)[C@H]1O (stereo partly shown) [melibiose]
  WT: 63.87 ± 0.04 °C
